Experiments:
[1] = test system: serum LH; assay: Example 5: serum LH surge after triptorelin gel (jugular catheter subpopulation); type: in vivo, swine
Procedure: All gilts were individually fed MATRIX® as a top-dress for 14 or 15 days at the recommended rate of 15 mg/gilt/day. Gilts were withdrawn from MATRIX® feeding (last top-dress in the morning on Day 0) and allocated to each of the following treatments. Controls were vehicle gel treated (vehicle gel without triptorelin) at 120 (+/−2) hours following MATRIX® withdrawal (last top dress). The other gilts were given 100, 200 or 400 mcg triptorelin as the acetate in a methylcellulose gel formulation 120 (+/−2) hours following MATRIX® withdrawal. The four treatments were: • 1. Vehicle gel (VG): vehicle gel without triptorelin at 120 (+/−2) hours after MATRIX® withdrawal. • 2. TG 100: 100 mcg (2 mL 50 mcg/mL) triptorelin gel at 120 (+/−2) hours after MATRIX® withdrawal. • 3. TG 200: 200 mcg (2 mL 100 mcg/mL) triptorelin gel at 120 (+/−2) hours after MATRIX® withdrawal. • 4. TG 400: 400 mcg (2 mL 200 mcg/mL) triptorelin gel at 120 (+/−2) hours after MATRIX® withdrawal.
A catheter was inserted non-surgically into the jugular vein (Kraeling et al. 1982) of a subpopulation of gilts in each treatment group (vehicle gel, n=8; 100 mcg triptorelin, n=6; 200 mcg triptorelin, n=7 and 400 mcg triptorelin, n=6). Ten mL blood samples were collected every 15 minutes for one hour prior to treatment, immediately following treatment (0) and at 0.5, 1, 2, 4, 6, 12, 18, 24, 36 and 48 hours after treatment. Blood samples were maintained at 4° C. until centrifuged at 800×g for 15 minutes within 12 hours of collection. The resulting serum was stored frozen until assayed for LH using validated procedures for pig serum (Kesner et al., 1987 and Kraeling et al., 1982). Onset, duration, and magnitude of the LH surge were analyzed. The LH data were analyzed with the General Linear Models procedure of SAS. Differences between treatments were tested on least squares means estimates using the T test at P<0.05. Onset of the LH surge is when serum LH concentration is greater than or equal to two standard deviations of the mean of the pre-treatment serum LH concentrations. Duration of the LH surge is the period between onset and when serum LH concentration is again less than or equal to two standard deviations of the mean of the pre-treatment serum LH concentrations. Magnitude of the LH surge is the maximum serum LH concentration reached during the LH surge.
A single 2 mL dose of triptorelin gel or vehicle gel was deposited within approximately 1-2 cm posterior to the cervix with a catheter similar to those used for artificial insemination. The dose was delivered using a standard multi-dose applicator attached to the catheter. A new disposable sheath, which surrounds the catheter, was used for each gilt.

[2] = test system: gilts; assay: Example 1: estrus observation (boar exposure, back pressure) after triptorelin gel; type: in vivo, swine; settings: 200 mcg T at 120 h post-MATRIX; raw average; PTK 1-07 (rep 3)
Procedure: All gilts were individually fed MATRIX® as a top-dress for 14 days at the recommended rate of 15 mg/gilt/day. Gilts were withdrawn from MATRIX® feeding (last top feed in the morning on Day 0) and allotted to treatments. Controls were treated with a 1.2% methylcellulose gel formulation without triptorelin at 96 hours following MATRIX® withdrawal (last top-dress). The remaining gilts received 200 mcg triptorelin, as the acetate, in a 1.2% methylcellulose gel formulation intravaginally at various times after MATRIX® withdrawal. The four treatments were: 1) vehicle gel (VG) treatment at 96 hours after MATRIX® withdrawal, 2) triptorelin gel (TG) treatment at 96 hours after MATRIX® withdrawal, 3) TG treatment at 120 hours after MATRIX® withdrawal and 4) TG treatment at 144 hours after MATRIX® withdrawal. All gilts were monitored for their estrous and ovulatory status as described below. Gilts included in replicate 1 were selected from terminal line commercial production gilts located in grow/finish barns. Sexual maturity, as indicated by one or more estrous periods, was not verified prior to the start of MATRIX® feeding. Gilts included in replicate 2 were selected from a maternal line gilt population. Sexual maturity was verified by at least one estrous period verified and recorded prior to starting MATRIX® feeding. […]
Data were analyzed using the Mixed Models procedures of SAS. […]

[3] = 200 mcg T, LS mean (1 gilt with surge)
[4] = 200 mcg T, relative to time of triptorelin gel treatment, LS mean (1 gilt with surge)

## CC(C)C[C@H](NC(=O)[C@@H](Cc1c[nH]c2ccccc12)NC(=O)[C@H](Cc1ccc(O)cc1)NC(=O)[C@H](CO)NC(=O)[C@H](Cc1c[nH]c2ccccc12)NC(=O)[C@H](Cc1c[nH]cn1)NC(=O)[C@@H]1CCC(=O)N1)C(=O)N[C@@H](CCCNC(=N)N)C(=O)N1CCC[C@H]1C(=O)NCC(N)=O [T, pGlu-His-Trp-Ser-Tyr-D-Trp-Leu-Arg-Pro-Gly-NH2]
[1]; 100 mcg T (n = 6)
  Gilts, which displayed a LH surge (number): 4
[1]; 100 mcg T, LS mean ± SE
  Magnitude of LH surge (maximum serum LH concentration): 3.94 ± 1.22
[1]; 100 mcg T, relative to time of triptorelin gel treatment, LS mean ± SE
  Onset of LH surge: 4 ± 3
[1]; 200 mcg T (n = 7)
  Gilts, which displayed a LH surge (number): 1
[1]; [3]
  Duration of LH surge: 18
  Magnitude of LH surge (maximum serum LH concentration): 8.98
[1]; [4]
  Onset of LH surge: 0.5
  Time of maximum LH conc.: 4
[1]; 400 mcg T (n = 6)
  Gilts, which displayed a LH surge (number): 5
[1]; 400 mcg T, LS mean ± SE
  Magnitude of LH surge (maximum serum LH concentration): 11.65 ± 12.35
[1]; 400 mcg T, relative to time of triptorelin gel treatment, LS mean ± SE
  Onset of LH surge: 4 ± 4
[2]
  Estrous Expression (%): 100.0%

— patent US9724380B2, “Method and compositions for synchronizing time of insemination in gilts” (JBS UNITED ANIMAL HEALTH II LLC, priority 2012, dated 2017)
